Experimental data reported in patent publication US8093260B2, “Aporphine derivatives and pharmaceutical use thereof” (Standard Chem. & Pharm. Co., Ltd., priority 2008, dated 2012).

Columns and labels:
[1] = Free radical scavenging of AAPH (β-phycoerythrin fluorescence decay); format: biochemical; conditions: compound 5×10^−6 M, AAPH 25 mM, β-phycoerythrin 5 nM, FIG. 2
Description: In order to evaluate the effect of test compounds in scavenging hydrophilic peroxy radical, the experiment was executed with reference to the method described by Tsuchiya et al. (Methods Enzymol 1992; 213: 460-472). In the experiment, peroxides will react with fluorescent substances and thus inflect observed fluorescence intensity. Thereby, the effect of test compounds in free radical scavenging can be evaluated by measuring the variation of the fluorescence intensity after the addition of test compounds.
First, to a silicate tube was added a phosphate solution (2 ml, pH 7.4), followed by the addition of β-phycoerythrin (5 nM) to increase relative fluorescence intensity. After 5 minutes, 2,2′-azobis(2-amidinopropane)dihydrochloride (25 mM, AAPH) was added therein. Subsequently, through a fluorescent spectrometry (Shimadzu RF-5301PC, Japan), the fluorescence intensity of β-phycoerythrin was measured by excitation at 540 nm and emission at 570 nm. Then, the test compounds (5×10^−6 M) was further added therein to observe the variation of the fluorescence intensity, in which 0.1% DMSO was taken as a control group.

[2] = tested on: vascular smooth muscle cells of rats; experiment: Protecting activity in vascular smooth muscle cells against H2O2 (MTT); format: cell-based, rat; conditions: compound 10 μM, 30 minutes before H2O2 200 μM, 24 hours, FIG. 3
Experimental: The vascular smooth muscle cells of rats (2×10^4 cells/mL×1 mL) were quantitatively seeded in 24-well plates, and cultured in Dulbecco's modified Eagle medium (DMEM) with 10% fetal bovine serum (FBS) for 24 hours to achieve cell adhesion. After cell adhesion, the DMEM medium with 10% fetal bovine serum was replaced with a fresh DMEM medium with 0.1% fetal bovine serum to perform cell culture for 48 hours.
Next, the test compounds were added in the cultures (final concentration: 0.1, 1, 10 μM). After 30 minutes, H2O2 (200 μM) was added therein to perform reaction for 24 hours in an incubator. Subsequently, in a light-proof environment, MTT (100 μL) was added into each well to perform reaction at 37° C. for 3 hours. The supernatant liquor was removed and then isopropanol (500 μL) was added, followed by shaking for 10 minutes. After standing for 10 minutes, supernatant liquor (200 μL) was transferred into 96-well plates. Finally, the absorbance values (O.D.) were monitored at 540 nm (OD540) and 630 nm (OD630). Based on the measured absorbance values (OD540-OD630), the effect of these test compounds on cell growth can be evaluated, as shown in FIG. 3.

lipid peroxidase = experiment: Activity in inhibiting lipid peroxidase (malondialdehyde quantitation); format: biochemical, Dunkin Hartley Guinea pig; conditions: 10 μM; guinea pig liver microsomes; 20 minutes/37° C.
Experimental: The assay was executed with reference to the method described in Biochem Biophys Res Commun. 1986; 135(3): 1015-1021.
• (a) Source: Dunkin Hartley Guinea pig liver microsomes • (b) Substrate: Polyunsaturated fatty acid • (c) Vehicle: 1% DMSO • (d) Pre-Incubation Time/Temp: 15 minutes/37° C. • (e) Incubation Time/Temp: 20 minutes/37° C. • (f) Incubation Buffer: 0.25 M Potassium Phosphate, pH 7.4, 0.1 mM EDTA • (g) Quantitation Method: Spectrophotometric quantitation of Malondialdehyde

Compound | protection of β-phycoerythin from peroxy radical AAPH-induced damage (fluorescence decay) [1] | inhibition of H2O2 damage to vascular smooth muscle cells (cell viability, MTT) [2] | Inhibition (%) (lipid peroxidase)
COc1cc2c(cc1OC)-c1c(O)c(OC)cc3c1C(C2)N(CC(O)COc1ccccc1OC)CC3 (stereo not drawn) [Compound 1] | delay β-phycoerythin fluorescence degradation | significantly inhibit H2O2 to damage vascular smooth muscle cells | 64%
COc1cc2c(cc1OC)-c1c(O)c(OC)cc3c1C(C2)N(CC(=O)Nc1c(C)cccc1C)CC3 (stereo not drawn) [Compound 2] | delay β-phycoerythin fluorescence degradation | slightly inhibit H2O2 to damage vascular smooth muscle cells | 70%
